Measured values reported in US20110301170A1, “Inhibitors of JNK” (priority 2010, published 2011).
Counter-ions that a name gives are not always drawn.

Test system: T1, JNK
T1 construct: Human JNK2α2 assay contains 1 nM enzyme; Human JNK1α1 assay contains 2 nM enzyme
Experiment: JNK Assay in vitro (phosphorylation of GST-ATF2 with [γ-33P] ATP)
Type: biochemical, Human
Conditions: IC50 affinity values; JNK isoform (JNK1α1, JNK2α2 or JNK3) not stated; Km concentrations of ATP and substrate; 30° C. for 30 min
Procedure: JNK activity was measured by phosphorylation of GST-ATF2 (19-96) with [-^33P] ATP. […] Human JNK2α2 assay contains 1 nM enzyme, 1 μM ATF2, 8 μM ATP with 1 uCi [γ-^33P] ATP. Human JNK1α1 assay contains 2 nM enzyme, 1 μM ATF2, 6 μM ATP with 1 μCi [γ-^33P] ATP. Human JNK3 (Upstate Biotech #14-501M) assay contains 2 nM enzyme, 1 μM ATF2, 4 μM ATP with 1 μCi [γ-^33P] ATP. The enzyme assay was carried out in the presence or absence of several compound concentrations. JNK and compound were pre-incubated for 10 min., followed by initiation of the enzymatic reaction by adding ATP and the substrate. The reaction mixture was incubated at 30° C. for 30 min. At the end of incubation, the reaction was terminated by transferring 25 μl of the reaction mixture to 150 μl of 10% glutathione Sepharose® slurry (Amersham #27-4574-01) containing 135 mM EDTA. The reaction product was captured on the affinity resin, and washed on a filtration plate (Millipore, MABVNOB50) with phosphate buffered saline for six times to remove free radionucleotide. The incorporation of ^33P into ATF2 was quantified on a microplate scintillation counter (Packard Topcount). Compound inhibition potency on JNK was measured by IC50 value generated from ten concentration inhibition curves fitted into the 3-parameter model: % inhibition=Maximum/(1+(IC50/[Inhibitor])^slope). Data were analyzed on Microsoft Excel for parameter estimation.

IC50 [nM]	Structure (SMILES)
135	O=C([C@H]1CC[C@H](Nc2nccc(-n3ncc4c(C(F)(F)F)cccc43)n2)CC1)N1CCn2cnnc2C1 [Compound 29, (5,6-Dihydro-8H-[1,2,4]triazolo[4,3-a]pyrazin-7-yl)-{4-[4-(4-trifluoromethyl-indazol-1-yl)-pyrimidin-2-ylamino]-cyclohexyl}-methanone]
165	Cc1nnc2n1CCN(C(=O)[C@H]1CC[C@H](Nc3nccc(-n4ncc5c(C(F)(F)F)cccc54)n3)CC1)C2 [Compound 30, (3-Methyl-5,6-dihydro-8H-[1,2,4]triazolo[4,3-a]pyrazin-7-yl)-{4-[4-(4-trifluoromethyl-indazol-1-yl)-pyrimidin-2-ylamino]-cyclohexyl}-methanone]

Test system: not given
Experiment: not given
Conditions: not given

Structure (SMILES)	melting point [°C]
O=C([C@H]1CC[C@H](Nc2nccc(-n3ncc4c(C(F)(F)F)cccc43)n2)CC1)N1CCn2cnnc2C1 [Compound 29, (5,6-Dihydro-8H-[1,2,4]triazolo[4,3-a]pyrazin-7-yl)-{4-[4-(4-trifluoromethyl-indazol-1-yl)-pyrimidin-2-ylamino]-cyclohexyl}-methanone]	223 to 227
O=C([C@H]1CC[C@H](Nc2nccc(-n3ccc4c(OC(F)F)cccc43)n2)CC1)N1CCn2cnnc2C1 (as salt: HCl) [Compound 27, {4-[4-(4-Difluoromethoxy-indol-1-yl)-pyrimidin-2-ylamino]-cyclohexyl}-(5,6-dihydro-8H-[1,2,4]triazolo[4,3-a]pyrazin-7-yl)-methanone]	175 to 178
Cc1nnc2n1CCN(C(=O)[C@H]1CC[C@H](Nc3nccc(-n4ccc5c(OCCCS(C)(=O)=O)cccc54)n3)CC1)C2 (as salt: HCl) [Compound 23, (4-{4-[4-(3-Methanesulfonyl-propoxy)-indol-1-yl]-pyrimidin-2-ylamino}-cyclohexyl)-(3-methyl-5,6-dihydro-8H-[1,2,4]triazolo[4,3-a]pyrazin-7-yl)-methanone]	178 to 180
C=C(C)c1cccc2c1ccn2-c1ccnc(N[C@H]2CC[C@H](C(=O)N3CCn4c(C)nnc4C3)CC2)n1 (as salt: HCl) [Compound 26, {4-[4-(4-Isopropenyl-indol-1-yl)-pyrimidin-2-ylamino]-cyclohexyl}-(3-methyl-5,6-dihydro-8H-[1,2,4]triazolo[4,3-a]pyrazin-7-yl)-methanone]	216.6 to 221
Cc1nnc2n1CCN(C(=O)[C@H]1CC[C@H](Nc3nccc(-n4ccc5c(OC(F)F)cccc54)n3)CC1)C2 (as salt: HCl) [Compound 28, {4-[4-(4-Difluoromethoxy-indol-1-yl)-pyrimidin-2-ylamino]-cyclohexyl}-(3-methyl-5,6-dihydro-8H-[1,2,4]triazolo[4,3-a]pyrazin-7-yl)-methanone]	205 to 210
C=C(C)c1cccc2c1ccn2-c1ccnc(N[C@H]2CC[C@H](C(=O)N3CCn4c(C)cnc4C3)CC2)n1 (as salt: HCl) [Compound 10, {4-[4-(4-Isopropenyl-indol-1-yl)-pyrimidin-2-ylamino]-cyclohexyl}-(3-methyl-5,6-dihydro-8H-imidazo[1,2-a]pyrazin-7-yl)-methanone]	220 to 224.9
Cc1cnc2n1CCN(C(=O)[C@H]1CC[C@H](Nc3nccc(-n4ccc5c(OC(F)F)cccc54)n3)CC1)C2 (as salt: HCl) [Compound 11, {4-[4-(4-Difluoromethoxy-indol-1-yl)-pyrimidin-2-ylamino]-cyclohexyl}-(3-methyl-5,6-dihydro-8H-imidazo[1,2-a]pyrazin-7-yl)-methanone]	190 to 195

The next lines start with the values.

melting point [°C]	Structure (SMILES)
258 to 260	Cc1nnc2n1CCN(C(=O)[C@H]1CC[C@H](Nc3nccc(-n4ncc5c(C(F)(F)F)cccc54)n3)CC1)C2 [Compound 30, (3-Methyl-5,6-dihydro-8H-[1,2,4]triazolo[4,3-a]pyrazin-7-yl)-{4-[4-(4-trifluoromethyl-indazol-1-yl)-pyrimidin-2-ylamino]-cyclohexyl}-methanone]
145 to 150	Cc1nnc2n1CCN(C(=O)[C@H]1CC[C@H](Nc3nccc(-n4nnc5c(C(C)(C)O)cccc54)n3)CC1)C2 (as salt: HCl) [Compound 39, (4-{4-[4-(1-Hydroxy-1-methyl-ethyl)-benzotriazol-1-yl]-pyrimidin-2-ylamino}-cyclohexyl)-(3-methyl-5,6-dihydro-8H-[1,2,4]triazolo[4,3-a]pyrazin-7-yl)-methanone]
180 to 200	CC(C)(O)c1cccc2c1nnn2-c1ccnc(N[C@H]2CC[C@H](C(=O)N3CCn4cnnc4C3)CC2)n1 (as salt: HCl) [Compound 38, (5,6-Dihydro-8H-[1,2,4]triazolo[4,3-a]pyrazin-7-yl)-(4-{4-[4-(1-hydroxy-1-methyl-ethyl)-benzotriazol-1-yl]-pyrimidin-2-ylamino}-cyclohexyl)-methanone]
200 to 210	O=C([C@H]1CC[C@@H](Nc2nccc(-n3nnc4c(C(F)(F)F)cccc43)n2)CC1)N1CCn2cnnc2C1 (as salt: HCl) [Compound 37, (5,6-Dihydro-8H-[1,2,4]triazolo[4,3-a]pyrazin-7-yl)-{4-[4-(4-trifluoromethyl-benzotriazol-1-yl)-pyrimidin-2-ylamino]-cyclohexyl}-methanone]
246 to 248	Cc1cccc2c1nnn2-c1ccnc(N[C@H]2CC[C@H](C(=O)N3CCn4c(C)nnc4C3)CC2)n1 (as salt: HCl) [Compound 35, {4-[4-(4-Methyl-benzotriazol-1-yl)-pyrimidin-2-ylamino]-cyclohexyl}-(3-methyl-5,6-dihydro-8H-[1,2,4]triazolo[4,3-a]pyrazin-7-yl)-methanone]
236 to 238	Cc1cccc2c1nnn2-c1ccnc(N[C@H]2CC[C@H](C(=O)N3CCn4cnnc4C3)CC2)n1 (as salt: HCl) [Compound 34, (5,6-Dihydro-8H-[1,2,4]triazolo[4,3-a]pyrazin-7-yl)-{4-[4-(4-methyl-benzotriazol-1-yl)-pyrimidin-2-ylamino]-cyclohexyl}-methanone]
185 to 190	O=C([C@H]1CC[C@H](Nc2nccc(-n3nnc4c(OC(F)F)cccc43)n2)CC1)N1CCn2cnnc2C1 (as salt: HCl) [Compound 44, {4-[4-(4-Dilfuoromethoxy-benzotriazol-1-yl)-pyrimidin-2-ylamino]-cyclohexyl}-(5,6-dihydro-8H-[1,2,4]triazolo[4,3-a]pyrazin-7-yl)-methanone]
